Measurements reported in US20260297081A1, “COMPOUNDS AND METHODS OF TREATING CANCERS” (Cullgen Inc., priority 2023, published 2026).

What follows are compounds tested on MCF7 cells (assay: Anti-proliferation (viability) of MCF7 cells (Table 7, FIG. 2B)). Conditions: Homo sapiens, MCF7, MCF7 cells, 3-6 days, 10-point serial dilution; read-out: GI IC50 in MCF-7.
Assay type: cell-based

`CNc1ccc(C(=O)Nc2ccc(N(C)C)nn2)c(NC2CCN(C(=O)CNC3CCN(c4ccc(Nc5ncc6c(C)c(C(C)=O)c(=O)n(C7CCCC7)c6n5)nc4)CC3)CC2)n1` [CPD-299, 2-((1-((1-(6-((6-acetyl-8-cyclopentyl-5-methyl-7-oxo-7,8-dihydropyrido[2,3-d]pyrimidin-2-yl)amino)pyridin-3-yl)piperidin-4-yl)glycyl)piperidin-4-yl)amino)-N-(6-(dimethylamino)pyridazin-3-yl)-6-(methylamino)nicotinamide] and `CC(=O)c1c(C)c2cnc(Nc3ccc(N4CCN(CCC(=O)N5CC(Nc6nc(NC(C)C)ccc6C(=O)Nc6ccc(N(C)C)nn6)C5)CC4)cn3)nc2n(C2CCCC2)c1=O` [CPD-303, 2-((1-(3-(4-(6-((6-acetyl-8-cyclopentyl-5-methyl-7-oxo-7,8-dihydropyrido[2,3-d]pyrimidin-2-yl)amino)pyridin-3-yl)piperazin-1-yl)propanoyl)azetidin-3-yl)amino)-N-(6-(dimethylamino)pyridazin-3-yl)-6-(isopropylamino)nicotinamide] cannot be ordered by IC50: under 50 nM for the first, under 50 nM for the second.

`CC(=O)c1c(C)c2cnc(Nc3ccc(N4CCN(CCC(=O)N5CC(Nc6nc(NC(C)C)ccc6C(=O)Nc6cn(C)c(C7CC7)n6)C5)CC4)cn3)nc2n(C2CCCC2)c1=O` [CPD-304, 2-((1-(3-(4-(6-((6-acetyl-8-cyclopentyl-5-methyl-7-oxo-7,8-dihydropyrido[2,3-d]pyrimidin-2-yl)amino)pyridin-3-yl)piperazin-1-yl)propanoyl)azetidin-3-yl)amino)-N-(2-cyclopropyl-1-methyl-1H-imidazol-4-yl)-6-(isopropylamino)nicotinamide] and `[2H]C([2H])([2H])Nc1ccc(C(=O)Nc2cn(C)c(C3CC3)n2)c(NC2CC(NC(=O)CN3CCN(c4ccc(Nc5ncc6c(C)c(C(C)=O)c(=O)n(C7CCCC7)c6n5)nc4)CC3)C2)n1` (stereo not shown) [CPD-307, 2-((3-(2-(4-(6-((6-acetyl-8-cyclopentyl-5-methyl-7-oxo-7,8-dihydropyrido[2,3-d]pyrimidin-2-yl)amino)pyridin-3-yl)piperazin-1-yl)acetamido)cyclobutyl)amino)-N-(2-cyclopropyl-1-methyl-1H-imidazol-4-yl)-6-((methyl-d3)amino)nicotinamide] cannot be ordered by IC50: over 100 nM for the first, over 100 nM for the second.

`CCc1nc(NC(=O)c2ccc(NC)nc2NC2CC3(CC(NC(=O)CN4CCN(c5ccc(Nc6ncc7c(C)c(C(C)=O)c(=O)n(C8CCCC8)c7n6)nc5)CC4)C3)C2)cn1C` (stereo not shown) [CPD-308, 2-((6-(2-(4-(6-((6-acetyl-8-cyclopentyl-5-methyl-7-oxo-7,8-dihydropyrido[2,3-d]pyrimidin-2-yl)amino)pyridin-3-yl)piperazin-1-yl)acetamido)spiro[3.3]heptan-2-yl)amino)-N-(2-ethyl-1-methyl-1H-imidazol-4-yl)-6-(methylamino)nicotinamide] and `CCCc1nc(NC(=O)c2ccc(NC)nc2NC2CC3(CC(NC(=O)CN4CCN(c5ccc(Nc6ncc7c(C)c(C(C)=O)c(=O)n(C8CCCC8)c7n6)nc5)CC4)C3)C2)cn1C` (stereo not shown) [CPD-309, 2-((6-(2-(4-(6-((6-acetyl-8-cyclopentyl-5-methyl-7-oxo-7,8-dihydropyrido[2,3-d]pyrimidin-2-yl)amino)pyridin-3-yl)piperazin-1-yl)acetamido)spiro[3.3]heptan-2-yl)amino)-N-(1-methyl-2-propyl-1H-imidazol-4-yl)-6-(methylamino)nicotinamide] cannot be ordered by IC50: over 100 nM for the first, over 100 nM for the second.

`CNc1ccc(C(=O)Nc2cn(C)c(C3CCC3)n2)c(NC2CC3(CC(NC(=O)CN4CCN(c5ccc(Nc6ncc7c(C)c(C(C)=O)c(=O)n(C8CCCC8)c7n6)nc5)CC4)C3)C2)n1` (stereo not shown) [CPD-310, 2-((6-(2-(4-(6-((6-acetyl-8-cyclopentyl-5-methyl-7-oxo-7,8-dihydropyrido[2,3-d]pyrimidin-2-yl)amino)pyridin-3-yl)piperazin-1-yl)acetamido)spiro[3.3]heptan-2-yl)amino)-N-(2-cyclobutyl-1-methyl-1H-imidazol-4-yl)-6-(methylamino)nicotinamide] showed an IC50 of over 100 nM.
